Reference: patent publication US20230414581A1, “SARM1 ENZYME ACTIVITY INHIBITOR AND USE THEREOF IN NEURODEGENERATIVE DISEASES” (ARTIVILA BIOPHARMA, priority 2020, published 2023)

Columns and labels:
[1] = biological target: T1, dN-SARM1 (Homo sapiens (Human), UniProt Q6SZW1); test: In vitro biochemical test of inhibiting SARM1 enzyme activity (IC50), PC6 fluorescence method; details: dN-SARM1 0.05 μg/ml; 50 μM NAD, 50 μM PC6, 50 μM NMN activator; 10 min pre-incubation
Experimental: First, 200 μM of the compound was added to a 50 mM Tris-HCl (pH 7.5) solution containing 0.05 μg/ml dN-SARM1. Then half of the mixture was added to an equal volume of 50 mM Tris-HCl (pH 7.5) solution containing 0.05 μg/ml dN-SARM1 (pH 7.5) for mixing. The drug was diluted 6 times by analogy to final concentrations of 200, 100, 50, 25, 12.5, 6.25, 3.125 μM, or 200, 50, 12.5, 3.125, 0.78, 0.195, 0.049 μM. The solution without addition of inhibitor was control group. The above solutions were incubated at room temperature for 10 min.
(§1) Then 50 μM NAD, 50 μM PC6 as substrate and 50 μM NMN as activator were added to the dN-SARM1 protein incubated with inhibitor for 30 min of reaction at room temperature. The concentration of each component was the final concentration in the reaction system.
(§2) During the reaction process, PC6 fluorescence spectrum kinetics was detected by a microplate reader at an excitation wavelength and an emission wavelength of 390 nm and 520 nm, respectively. Finally, the activity of the protein was denoted by the reaction rate, and the half-inhibition concentration was calculated. The higher the reaction rate, the stronger the protein activity, and the lower the inhibition efficiency of the compound.

[2] = biological target: T1, dN-SARM1; test: In vitro biochemical test of inhibiting SARM1 enzyme activity (% inhibition rate), PC6 fluorescence method; details: 50 μM compound; 0.05 μg/ml dN-SARM1; 50 μM NAD, 50 μM PC6, 50 μM NMN activator; 30 min room temperature
Experimental: The compounds were detected by PC6 fluorescence method [Chinese patent 202010528147.3] with the dN-SARM1 protein obtained in “Expression and purification of SARM1 protein” and “(4) Protein extraction” in Example 4 above.
as §1, with “First, 0.05 μg/ml dN-SARM1 and 50 μM compound were incubated in 50 mM Tris-HCl (pH 7.5) solution for 10 min. Then” for “Then”, “the drug” for “inhibitor”
as §2, with “rate.” for “rate, and the half-inhibition concentration was calculated.”

[3] = biological target: SARM1 in iSARM1 (HEK293) cells (Homo sapiens (Human), UniProt Q6SZW1); test: Inhibition of SARM1 activity in cell line with inducible overexpression of SARM1 (intracellular cADPR level); assay type: cell-based; details: 50 μM inhibitor, 100 μM CZ-48 activator, 16 h, cADPR content
Chain of SARM1 in iSARM1 (HEK293) cells (Q6SZW1 28-724): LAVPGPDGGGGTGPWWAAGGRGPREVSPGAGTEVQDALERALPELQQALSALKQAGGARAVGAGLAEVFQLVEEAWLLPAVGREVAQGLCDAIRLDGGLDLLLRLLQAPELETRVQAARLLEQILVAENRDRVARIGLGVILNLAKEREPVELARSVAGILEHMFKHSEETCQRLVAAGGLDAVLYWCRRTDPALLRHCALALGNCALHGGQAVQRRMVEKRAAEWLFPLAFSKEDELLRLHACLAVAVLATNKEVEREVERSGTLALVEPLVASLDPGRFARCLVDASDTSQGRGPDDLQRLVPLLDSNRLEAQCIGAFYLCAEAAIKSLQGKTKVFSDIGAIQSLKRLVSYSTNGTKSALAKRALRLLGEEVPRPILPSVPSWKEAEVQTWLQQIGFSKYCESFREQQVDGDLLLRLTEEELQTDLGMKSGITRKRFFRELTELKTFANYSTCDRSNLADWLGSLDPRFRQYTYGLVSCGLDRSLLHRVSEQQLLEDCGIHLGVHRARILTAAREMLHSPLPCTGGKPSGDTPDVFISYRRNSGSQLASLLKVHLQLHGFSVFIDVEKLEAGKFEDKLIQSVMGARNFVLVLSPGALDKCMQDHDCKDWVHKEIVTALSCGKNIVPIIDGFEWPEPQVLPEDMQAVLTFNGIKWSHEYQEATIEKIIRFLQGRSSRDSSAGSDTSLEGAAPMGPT
Experimental: Firstly, a 96-well culture dish was treated with 0.05 mg/ml polylysine for 5 min, and washed once with PBS. 3×10^4 iSARM1 (HEK293) cells were plated into the 96-well plate and cultured in a 37° C. and 5% incubator overnight. The next day, the cells were added with an inhibitor with a final concentration of 50 μM, cultured in the incubator for 1.5 h, then added with the activator CZ-48 with a final concentration of 100 μM, and co-cultured for 16 h. In addition, a control group without addition of CZ-48 or drug was set up. Finally, the intracellular cADPR level was detected to denote the activity of SARM1, and the inhibition rate of SARM1 by 50 μM inhibitor in cells was calculated.
The cADPR assay was conducted as follows. First, the cells were washed once with PBS, and added with 150 μl of pre-cooled 0.6M perchloric acid (PCA) for rapid lysis of the cells and precipitation of proteins. […]
The content of cADPR in the solution was determined by Cycling analysis, which was operated as follows. […] Each well of the 96-well plate was added with the reaction solution containing or not containing cyclase for reaction, and the reaction kinetic curve within 30 min (Ex:Em=544/599) was recorded. The average slope of the reaction was calculated, and the accurate cADPR content was calculated by converting the cADPR standard. […]

T1 sequence (Q6SZW1 28-724): as above

SMILES	IC50 [1] [nM]	Inhibition rate of enzyme activity [2] [%]	Inhibition rate [3]
O=c1sn(-c2cccc3ccccc23)c(=O)n1Cc1ccccc1 [Compound 7]	< 1000	98.6	–
Cc1cccc(Cl)c1-n1sc(=O)n(CC2CC2)c1=O [Compound 4]	< 1000	–	–
O=C(CCCCCCNC(=O)c1cnc(N(c2ccccc2)c2ccccc2)nc1)NO [Compound 43]	> 10000	85.3	–
Cc1ccc(-n2sc(=O)n(Cc3ccc(F)cc3)c2=O)cc1 [Compound 6]	< 1000	–	–
N#Cc1ccc(Cl)cc1Cc1cc(Cl)ccc1C#N [Compound 32]	> 10000	93.7	–
O=c1sn(-c2ccccc2C(F)(F)F)c(=O)n1CC1CC1 [Compound 2]	< 1000	–	B (B: 25-50%)
CC(C)c1ccc(-n2c(=O)sn(-c3ccc(SC(F)(F)F)cc3)c2=O)cc1 [Compound 8]	1000 to 10000	–	–
O=C(CCCCCCC(=O)Nc1ccccc1)NO [Compound 40]	–	75.6	–
Cn1sc(=O)n(Cc2ccccc2)c1=O [Compound 1]	< 1000	–	–
O=C(C=Cc1cccc(S(=O)(=O)Nc2ccccc2)c1)NO [Compound 42]	–	67.4	–
Cn1c(=O)sn(-c2cccc3ccccc23)c1=O [Compound 3]	< 1000	–	–
CCn1c(=O)/c(=C2\Sc3ccccc3N2C)s/c1=C\c1cccc[n+]1CC [Compound 39]	1000 to 10000	–	–
O=C(/C=C/c1ccc(CNCCc2c(O)[nH]c3ccccc23)cc1)NO [Compound 41]	–	67.3	–
N#Cc1c(Cl)cc(Cl)cc1Sc1cc(Cl)cc(Cl)c1O [Compound 36]	> 10000	98.5	–
Oc1cc(Cl)ccc1Oc1ccc(Cl)cc1Cl [Compound 35]	> 10000	102	–
CCN(CC)C(=S)SSC(=S)N(CC)CC [Compound 37]	< 1000	101	–
